Laboratory results published in PMC8185074, “Anchor extension: a structure-guided approach to design cyclic peptides targeting enzyme active sites” (Nature Communications, 2021).
Peptide text beside a SMILES is read from it.

What was measured:
Assay type in all cases: biochemical
HDAC6 = target: T1, HDAC6 (Homo sapiens, UniProt Q9UBN7); test: HDAC6 inhibition, full IC50 measurement (Reaction Biology; fluorogenic p53 peptide RHKK(Ac)AMC)
T1 construct: purchased Reaction Biology Corporation (assay run by the CRO)
T1 sequence (Q9UBN7 1-1215): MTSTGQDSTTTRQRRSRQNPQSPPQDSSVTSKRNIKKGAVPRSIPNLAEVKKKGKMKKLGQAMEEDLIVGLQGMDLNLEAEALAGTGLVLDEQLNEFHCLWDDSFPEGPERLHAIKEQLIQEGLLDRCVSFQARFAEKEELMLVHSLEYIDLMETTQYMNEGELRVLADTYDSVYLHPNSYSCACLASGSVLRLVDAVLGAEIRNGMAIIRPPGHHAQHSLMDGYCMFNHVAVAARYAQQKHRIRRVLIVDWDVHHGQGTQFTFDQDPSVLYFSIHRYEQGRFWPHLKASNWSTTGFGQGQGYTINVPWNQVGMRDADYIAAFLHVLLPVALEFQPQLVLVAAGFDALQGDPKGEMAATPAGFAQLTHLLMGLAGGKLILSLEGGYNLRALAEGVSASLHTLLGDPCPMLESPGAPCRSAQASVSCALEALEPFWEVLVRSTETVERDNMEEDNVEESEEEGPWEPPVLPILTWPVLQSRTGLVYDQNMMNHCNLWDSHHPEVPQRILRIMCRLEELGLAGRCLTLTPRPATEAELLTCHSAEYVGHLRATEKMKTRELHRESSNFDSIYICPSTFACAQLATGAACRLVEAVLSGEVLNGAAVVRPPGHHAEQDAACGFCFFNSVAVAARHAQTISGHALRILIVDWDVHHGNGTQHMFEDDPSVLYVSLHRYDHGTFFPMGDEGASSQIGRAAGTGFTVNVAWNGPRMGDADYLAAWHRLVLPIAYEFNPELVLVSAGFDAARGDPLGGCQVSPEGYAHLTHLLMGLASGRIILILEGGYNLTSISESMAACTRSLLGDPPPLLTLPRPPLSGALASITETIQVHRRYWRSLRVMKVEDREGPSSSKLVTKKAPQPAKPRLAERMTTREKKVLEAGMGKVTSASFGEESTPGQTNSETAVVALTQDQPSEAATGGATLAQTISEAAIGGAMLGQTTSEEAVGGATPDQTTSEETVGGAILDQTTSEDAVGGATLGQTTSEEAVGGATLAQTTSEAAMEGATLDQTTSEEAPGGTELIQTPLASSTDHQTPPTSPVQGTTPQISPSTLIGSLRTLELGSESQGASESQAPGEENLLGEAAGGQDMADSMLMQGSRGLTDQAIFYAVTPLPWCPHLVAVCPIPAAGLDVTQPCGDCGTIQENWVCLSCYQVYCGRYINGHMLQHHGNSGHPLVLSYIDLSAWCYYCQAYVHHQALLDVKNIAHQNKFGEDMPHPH
How it was run: (§1)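 Reaction: enzyme plus acoustically dispensed peptide inhibitor, 50 μM RHKK(Ac)AMC substrate, pH 8.0 Tris buffer with BSA and 1% DMSO, 1 h, 30 °C. Duplicates averaged.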

HDAC1 = target: T2, HDAC1 (Homo sapiens, UniProt Q13547); test: HDAC1 inhibition, full IC50 measurement (Reaction Biology; fluorogenic p53 peptide RHKK(Ac)AMC); conditions: t1/t2 replicates
T2 construct: purchased Reaction Biology Corporation (assay run by the CRO)
T2 sequence (Q13547 whole entry): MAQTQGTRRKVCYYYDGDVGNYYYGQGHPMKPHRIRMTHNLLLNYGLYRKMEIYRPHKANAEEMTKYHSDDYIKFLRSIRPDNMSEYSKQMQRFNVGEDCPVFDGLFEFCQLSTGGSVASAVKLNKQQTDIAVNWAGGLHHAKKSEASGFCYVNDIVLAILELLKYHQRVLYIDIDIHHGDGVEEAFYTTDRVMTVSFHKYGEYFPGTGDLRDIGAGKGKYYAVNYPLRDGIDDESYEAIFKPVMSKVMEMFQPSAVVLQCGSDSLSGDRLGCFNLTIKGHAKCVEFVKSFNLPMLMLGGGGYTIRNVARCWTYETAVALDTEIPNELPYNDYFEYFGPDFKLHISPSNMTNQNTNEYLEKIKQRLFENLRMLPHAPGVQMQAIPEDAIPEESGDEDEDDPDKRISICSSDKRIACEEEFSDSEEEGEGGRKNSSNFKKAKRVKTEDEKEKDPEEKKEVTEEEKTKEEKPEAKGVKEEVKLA
How it was run: as §1

HDAC3 = target: T3, HDAC3 (Homo sapiens, UniProt O15379); test: HDAC3 inhibition, full IC50 measurement (Reaction Biology; fluorogenic p53 peptide RHKK(Ac)AMC)
T3 construct: purchased Reaction Biology Corporation (assay run by the CRO)
T3 sequence (O15379 whole entry): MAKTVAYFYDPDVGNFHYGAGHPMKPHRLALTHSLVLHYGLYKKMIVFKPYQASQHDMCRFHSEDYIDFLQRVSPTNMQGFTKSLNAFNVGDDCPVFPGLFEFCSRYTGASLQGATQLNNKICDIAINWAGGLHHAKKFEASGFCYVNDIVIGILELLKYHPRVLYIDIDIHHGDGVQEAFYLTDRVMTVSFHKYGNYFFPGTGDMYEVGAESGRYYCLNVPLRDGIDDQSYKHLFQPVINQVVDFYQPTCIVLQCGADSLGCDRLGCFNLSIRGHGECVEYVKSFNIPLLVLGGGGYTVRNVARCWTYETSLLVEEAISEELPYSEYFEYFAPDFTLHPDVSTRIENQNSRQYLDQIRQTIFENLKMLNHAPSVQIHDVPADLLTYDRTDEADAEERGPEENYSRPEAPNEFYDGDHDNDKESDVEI
T3 sequence (Q9Y618 395-489 partner limits assumed): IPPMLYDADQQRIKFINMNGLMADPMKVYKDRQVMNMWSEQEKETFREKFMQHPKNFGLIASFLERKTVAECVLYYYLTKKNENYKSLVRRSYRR
How it was run: as §1

With `N=C(N)NCCC[C@@H]1NC(=O)[C@H](Cc2c[nH]c3ccccc23)NC(=O)[C@H](CC(=O)O)NC(=O)[C@@H](CO)NC(=O)[C@H](Cc2c[nH]c3ccccc23)NC(=O)[C@H](CCCCCS)NC(=O)[C@H](CCC(N)=O)NC1=O` [des4.1.0, SHA-Trp-dSer-Asp-Trp-Arg-Gln] (HELM PEPTIDE1{D.W.R.Q.[O=C([C@H](CCCCCS)N[*:1])[*:2]].W.[dS]}$PEPTIDE1,PEPTIDE1,1:R1-7:R2$$$V2.0) the “HDAC6 activity raw data (signal)” value (HDAC6; Conc. 1.00E-05 M, t1) was 7877, the “HDAC6 activity raw data (signal)” value (HDAC6; Conc. 1.00E-05 M, t2) was -8060 and the “HDAC6 activity raw data (signal)” value (HDAC6; Conc. 1.11E-06 M, t1) was 16871. The “HDAC6 activity raw data (signal)” value (HDAC6; Conc. 1.11E-06 M, t2) was 12343, the “HDAC6 activity raw data (signal)” value (HDAC6; Conc. 1.23E-07 M, t1) was 204372 and the “HDAC6 activity raw data (signal)” value (HDAC6; Conc. 1.23E-07 M, t2) was 163263. The “HDAC6 activity raw data (signal)” value (HDAC6; Conc. 1.37E-08 M, t1) was 1871464, the “HDAC6 activity raw data (signal)” value (HDAC6; Conc. 1.37E-08 M, t2) was 1633652 and the “HDAC6 activity raw data (signal)” value (HDAC6; Conc. 1.52E-09 M, t1) was 2518833. The “HDAC6 activity raw data (signal)” value (HDAC6; Conc. 1.52E-09 M, t2) was 2655286, the “HDAC6 activity raw data (signal)” value (HDAC6; Conc. 3.33E-06 M, t1) was 8242 and the “HDAC6 activity raw data (signal)” value (HDAC6; Conc. 3.33E-06 M, t2) was -3634. The “HDAC6 activity raw data (signal)” value (HDAC6; Conc. 3.70E-07 M, t1) was 49535, the “HDAC6 activity raw data (signal)” value (HDAC6; Conc. 3.70E-07 M, t2) was 45420 and the “HDAC6 activity raw data (signal)” value (HDAC6; Conc. 4.12E-08 M, t1) was 772837. For the same compound, the “HDAC6 activity raw data (signal)” value (HDAC6; Conc. 4.12E-08 M, t2) was 534957, the “HDAC6 activity raw data (signal)” value (HDAC6; Conc. 4.57E-09 M, t1) was 2466106 and the “HDAC6 activity raw data (signal)” value (HDAC6; Conc. 4.57E-09 M, t2) was 2168070. The “HDAC6 activity raw data (signal)” value (HDAC6; Conc. 5.08E-10 M, t1) was 2603168, the “HDAC6 activity raw data (signal)” value (HDAC6; Conc. 5.08E-10 M, t2) was 2401605 and the “HDAC1 activity raw data (signal)” value (HDAC1; peptide conc. 1.00E-05 M, listed as des4.1.0_t1) was 765. The “HDAC1 activity raw data (signal)” value (HDAC1; peptide conc. 1.00E-05 M, listed as des4.1.0_t2) was 43, the “HDAC1 activity raw data (signal)” value (HDAC1; peptide conc. 1.11E-06 M, listed as des4.1.0_t1) was 72647 and the “HDAC1 activity raw data (signal)” value (HDAC1; peptide conc. 1.11E-06 M, listed as des4.1.0_t2) was 40074. For the same compound, the “HDAC1 activity raw data (signal)” value (HDAC1; peptide conc. 1.23E-07 M, listed as des4.1.0_t1) was 531723, the “HDAC1 activity raw data (signal)” value (HDAC1; peptide conc. 1.23E-07 M, listed as des4.1.0_t2) was 406309 and the “HDAC1 activity raw data (signal)” value (HDAC1; peptide conc. 1.37E-08 M, listed as des4.1.0_t1) was 925044. For the same compound, the “HDAC1 activity raw data (signal)” value (HDAC1; peptide conc. 1.37E-08 M, listed as des4.1.0_t2) was 865901, the “HDAC1 activity raw data (signal)” value (HDAC1; peptide conc. 1.52E-09 M, listed as des4.1.0_t1) was 1099796 and the “HDAC1 activity raw data (signal)” value (HDAC1; peptide conc. 1.52E-09 M, listed as des4.1.0_t2) was 1072226. The “HDAC1 activity raw data (signal)” value (HDAC1; peptide conc. 3.33E-06 M, listed as des4.1.0_t1) was 17702, the “HDAC1 activity raw data (signal)” value (HDAC1; peptide conc. 3.33E-06 M, listed as des4.1.0_t2) was 11850 and the “HDAC1 activity raw data (signal)” value (HDAC1; peptide conc. 3.70E-07 M, listed as des4.1.0_t1) was 193534. For the same compound, the “HDAC1 activity raw data (signal)” value (HDAC1; peptide conc. 3.70E-07 M, listed as des4.1.0_t2) was 155666, the “HDAC1 activity raw data (signal)” value (HDAC1; peptide conc. 4.12E-08 M, listed as des4.1.0_t1) was 733473 and the “HDAC1 activity raw data (signal)” value (HDAC1; peptide conc. 4.12E-08 M, listed as des4.1.0_t2) was 658176. For the same compound, the “HDAC1 activity raw data (signal)” value (HDAC1; peptide conc. 4.57E-09 M, listed as des4.1.0_t1) was 1015864, the “HDAC1 activity raw data (signal)” value (HDAC1; peptide conc. 4.57E-09 M, listed as des4.1.0_t2) was 988230 and the “HDAC1 activity raw data (signal)” value (HDAC1; peptide conc. 5.08E-10 M, listed as des4.1.0_t1) was 1225387. The “HDAC1 activity raw data (signal)” value (HDAC1; peptide conc. 5.08E-10 M, listed as des4.1.0_t2) was 1041994, the “HDAC3 activity raw data (signal)” value (HDAC3; Conc. 1.00E-05 M, t1) was -1388 and the “HDAC3 activity raw data (signal)” value (HDAC3; Conc. 1.00E-05 M, t2) was 157. For the same compound, the “HDAC3 activity raw data (signal)” value (HDAC3; Conc. 1.11E-06 M, t1) was 49544, the “HDAC3 activity raw data (signal)” value (HDAC3; Conc. 1.11E-06 M, t2) was 53052 and the “HDAC3 activity raw data (signal)” value (HDAC3; Conc. 1.23E-07 M, t1) was 403506. The “HDAC3 activity raw data (signal)” value (HDAC3; Conc. 1.23E-07 M, t2) was 392664, the “HDAC3 activity raw data (signal)” value (HDAC3; Conc. 1.37E-08 M, t1) was 878874 and the “HDAC3 activity raw data (signal)” value (HDAC3; Conc. 1.37E-08 M, t2) was 905094. For the same compound, the “HDAC3 activity raw data (signal)” value (HDAC3; Conc. 1.52E-09 M, t1) was 1051534, the “HDAC3 activity raw data (signal)” value (HDAC3; Conc. 1.52E-09 M, t2) was 1009763 and the “HDAC3 activity raw data (signal)” value (HDAC3; Conc. 3.33E-06 M, t1) was 16525. The “HDAC3 activity raw data (signal)” value (HDAC3; Conc. 3.33E-06 M, t2) was 4898, the “HDAC3 activity raw data (signal)” value (HDAC3; Conc. 3.70E-07 M, t1) was 191695 and the “HDAC3 activity raw data (signal)” value (HDAC3; Conc. 3.70E-07 M, t2) was 162137. For the same compound, the “HDAC3 activity raw data (signal)” value (HDAC3; Conc. 4.12E-08 M, t1) was 681441, the “HDAC3 activity raw data (signal)” value (HDAC3; Conc. 4.12E-08 M, t2) was 656036 and the “HDAC3 activity raw data (signal)” value (HDAC3; Conc. 4.57E-09 M, t1) was 1007447. The “HDAC3 activity raw data (signal)” value (HDAC3; Conc. 4.57E-09 M, t2) was 1022661, the “HDAC3 activity raw data (signal)” value (HDAC3; Conc. 5.08E-10 M, t1) was 1094681 and the “HDAC3 activity raw data (signal)” value (HDAC3; Conc. 5.08E-10 M, t2) was 1129520.
